The target in test [1] is T1, Cysteinyl leukotriene receptor 1 (Cavia porcellus, UniProt Q2NNR5).
T1 sequence (Q2NNR5 whole entry): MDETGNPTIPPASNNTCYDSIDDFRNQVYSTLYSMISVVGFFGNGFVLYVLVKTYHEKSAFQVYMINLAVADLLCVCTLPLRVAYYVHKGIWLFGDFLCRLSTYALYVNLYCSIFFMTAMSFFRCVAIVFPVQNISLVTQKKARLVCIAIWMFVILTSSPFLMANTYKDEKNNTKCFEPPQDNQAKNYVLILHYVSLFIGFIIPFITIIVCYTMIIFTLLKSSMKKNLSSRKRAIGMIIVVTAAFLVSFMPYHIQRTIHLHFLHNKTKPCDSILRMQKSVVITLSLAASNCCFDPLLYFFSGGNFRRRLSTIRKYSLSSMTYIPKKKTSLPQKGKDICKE
Put plainly: Binding constant was determined as affinity to displace [3H]LTD4 from Cysteinyl leukotriene D4 receptor on guinea pig lung membrane. In kind it is tissue-based.

Test [2] relates to Cavia porcellus. Put plainly: Antagonistic effect on LTD4 induced change in lung compliance (CDYN) in anesthetized guinea pigs, at dose 5 ug/kg, administered intravenously. In kind it is functional. Conditions: iv.
Test [3] relates to Cavia porcellus. The test is described as follows: Antagonistic effect on LTD4 induced change in air way resistance (RL) in anesthetized guinea pigs, at dose 5 ug/kg, administered intravenously. In kind it is functional. To be noted: iv.
The target of test [4] is T2, Cysteinyl leukotriene receptor 1 (Cavia porcellus) (UniProt Q2NNR5).
T2 sequence (whole entry): T1 sequence (Q2NNR5 whole entry)

Test [5] deals with Cavia porcellus. The test is described as follows: Antagonistic effect on LTD4 induced changes in dynamic lung compliance (CDYN) in anesthetized guinea pigs, at dose 5 mg/kg when administered intravenously. In kind it is functional. To be noted: route intravenous.
Test [6] relates to Cavia porcellus. Put plainly: Antagonistic effect on LTD4 induced change in airway resistance (RL) in anesthetized guinea pigs, at dose 5 mg/kg when administered intravenously. In kind it is functional. Conditions: route intravenous.
In test [7] the target is T2, Cysteinyl leukotriene receptor 1 (Cavia porcellus). This is another data set of the same source.
Test [8] has the same target. The test is described as follows: Dissociation constant towards Cysteinyl leukotriene D4 receptor of guinea pig.
For test [9], the system named is Cavia porcellus. The test is described as follows: Antagonistic effect on LTD4 induced change in lung compliance (CDYN) in anesthetized guinea pig, at dose 5 ug/kg, administered intravenously. Type of test: functional. Conditions: iv.

The structures appear in SMILES notation. Structures can show the parent of a compound that is named as a salt.

In general, Ki refers to a measure of affinity in units of concentration, obtained from inhibition or displacement. High values mean lower affinity, low ones higher affinity. The inhibition in vivo is how much of the control response was suppressed. A low value points to a weak effect. As to `O=C(O)CCSC(SCCC(=O)O)c1ccccc1CCCCCCCCc1ccccc1`, the affinity in [1] corresponds to a Ki of 245 nM. The inhibition in vivo at 0.005 mg/kg with Cavia porcellus [2] is 95%; in the test on Cavia porcellus [3], 100%. For the same molecule, in test [4], the -Log K B amounted to 6.7.
As for `CCCc1c(OCC(O)COc2ccc3c(=O)cc(C(=O)O)oc3c2CCC)ccc(C(C)=O)c1O` (stereo unspecified) [FPL-55712 SODIUM SALT], the inhibition in vivo at 5 mg/kg in the test on Cavia porcellus [5] and in the test on Cavia porcellus [6] was 97% throughout. This molecule came in with a -Log K B in test [7] of 6.8.
In the case of `CCCCCCCCCCCCc1ccccc1C(SCCC(=O)O)SCCC(=O)O`, affinity in test [1] was put at a Ki of 445 nM. In [8], this molecule returned a -Log K B of 6. Besides, the inhibition in vivo at 0.005 mg/kg in the test on Cavia porcellus [9] was 83%; in the test with Cavia porcellus [3] it was 97%.

For the origin of these results see ChEMBL document CHEMBL1122930, “Synthesis and pharmacological characterization of 5-(2-dodecylphenyl)-4,6-dithianonanedioic acid and 5-[2-(8-phenyloctyl)phenyl]-4,6-dithianonanedioic acid: prototypes of a novel class of leukotriene antagonists” (J Med Chem, 1985).
